Assay results: US20100197797A1 (priority 2009, published 2010)

Legend:
[1] = system: healthy subjects; test: Placebo-controlled clinical pharmacology study, blood pressure at supratherapeutic doses; format: in vivo, human; details: 300 mg twice daily, 12 hour steady state dosing interval
[2] = system: healthy subjects; test: QTcF interval study, placebo- and positive-controlled; format: in vivo, human; details: 600 mg/day
Source text: After baseline and placebo adjustment, the maximum mean QTcF change was 8 ms (2-sided 90% CI, 3-12 ms).

[3] = system: patients; test: Spontaneous / postmarketing reports; format: in vivo, human; details: post-marketing, multiple drugs but also milnacipran hydrochloride only
Source text: However, because these adverse reactions were reported voluntarily from a population of uncertain size, it is not always possible to reliably estimate their frequency or establish a causal relationship to drug exposure.

[4] = Human pharmacokinetics; details: in vivo
Description: The pharmacokinetic parameters described herein include area under the plasma concentration-time curve (AUC0-t and AUC0-∞), maximum plasma concentration (Cmax), time of maximum plasma concentration (Tmax) and terminal elimination half-life (T1/2). The time of maximum concentration, Tmax, is determined as the time corresponding to Cmax. Area under the plasma concentration-time curve up to the time corresponding to the last measurable concentration (AUC0-t) is calculated by numerical integration using the linear trapezoidal rule as follows: […]

[5] = system: plasma proteins; test: Plasma protein binding; format: in vitro ADME
[6] = Solubility; format: physicochemical

Structure (SMILES): CCN(CC)C(=O)C1(c2ccccc2)CC1CN.Cl (racemic) [milnacipran hydrochloride, (±)-[1R(S),2S(R)]-2-(aminomethyl)-N,N-diethyl-1-phenylcyclopropanecarboxamide hydrochloride]
- mean increase in supine diastolic blood pressure [1]: up to 11.5 mm Hg
- mean increase in supine systolic blood pressure [1]: up to 10.0 mm Hg
- clinical significance of QTcF increase [2]: not considered to be clinically significant
- maximum mean QTcF change ([2]; after baseline and placebo adjustment (2-sided 90% CI, 3-12 ms)): 8 ms
- outcome of acute overdoses [3]: fatal outcomes have been reported
- effect of food on absorption [4]: not affected by food
- plasma protein binding [5]: 13%
- solubility ([6]; chloroform): freely soluble
- solubility ([6]; diethyl ether): sparingly soluble
- solubility ([6]; ethanol): freely soluble
- solubility ([6]; methanol): freely soluble
- solubility ([6]; methylene chloride): freely soluble
- solubility ([6]; water): freely soluble
